biological target: CRBN truncate (318-426) (Homo sapiens (Human), UniProt Q96SW2); assay: Measurement of molecular interactions using surface plasmon resonance (SPR), Biacore T200; assay type: binding; conditions: 25° C., immobilized CRBN truncate, upper limit of measurement 200 μM
In short: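 C-terminally Avi-tagged CRBN (318-426) captured on a streptavidin SA chip on a Biacore T200. Running buffer 10 mM HEPES pH 7.5, 150 mM NaCl, 1 mM TCEP, 0.005% Tween 20, 2% DMSO; 60 s contact, 120 s dissociation.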

CRBN truncate (318-426), sequence (Q96SW2 318-426): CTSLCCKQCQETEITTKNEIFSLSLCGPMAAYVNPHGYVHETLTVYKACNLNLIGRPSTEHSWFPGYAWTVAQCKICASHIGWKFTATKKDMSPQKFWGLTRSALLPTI

SMILES	Kd [µM]
CC(C)(C)OC(=O)c1ccc(C2(F)CCCC(=O)NC2=O)cc1 (centres unmarked) [Example 243, tert-Butyl 4-(3-fluoro-2,7-dioxoazepan-3-yl) benzoate]	≥ 100
CC(=O)Nc1cccc(C2(F)CCCC(=O)NC2=O)c1 (centres unmarked) [Example 245, N-[3-(3-Fluoro-2,7-dioxoazepan-3-yl)phenyl]acetamide]	≥ 100
O=C1CCCC(n2nc(-c3ccccc3)ccc2=O)C(=O)N1 (centres unmarked) [Example 246, 3-(6-Oxo-3-phenylpyridazin-1-yl) azepane-2,7-dione]	50 to 100
O=C1CCCC(n2ncc(-c3ccccc3)cc2=O)C(=O)N1 (centres unmarked) [Example 247, 3-(6-oxo-4-phenylpyridazin-1-yl)azepane-2,7-dione]	≥ 100
O=C1CCCC(n2ncc(Cl)cc2=O)C(=O)N1 (centres unmarked) [Example 248, 3-(4-Chloro-6-oxopyridazin-1-yl)azepane-2,7-dione]	≥ 100
O=C1CCCC(n2nnc3ccccc32)C(=O)N1 (centres unmarked) [Example 250, 3-(Benzotriazol-1-yl)azepine 2,7-dione]	≥ 100
COc1ccc2nn(C3CCCC(=O)NC3=O)nc2c1 (centres unmarked) [Example 251, 3-(5-Methoxybenzotriazol-2-yl)azepane-2,7-dione]	≥ 100
O=C1CCCC(n2nc(Cl)ccc2=O)C(=O)N1 (centres unmarked) [Example 252, 3-(3-Chloro-6-oxopyridazin-1-yl)azepane-2,7-dione]	≥ 100
COc1ccc2c(c1)nnn2C1CCCC(=O)NC1=O (centres unmarked) [Example 253, 3-(5-Methoxybenzotriazol-1-yl)azepane-2,7-dione]	≥ 100
COc1ccc2nnn(C3CCCC(=O)NC3=O)c2c1 (centres unmarked) [Example 254, 3-(6-Methoxybenzotriazol-1-yl)azepane-2,7-dione]	≥ 100
COc1cccc2c1nnn2C1CCCC(=O)NC1=O (centres unmarked) [Example 255, 3-(4-Methoxybenzotriazol-1-yl)azepane-2,7-dione]	≥ 100
COc1cccc2nn(C3CCCC(=O)NC3=O)nc12 (centres unmarked) [Example 256, 3-(4-Methoxybenzotriazol-2-yl)azepane-2,7-dione]	≥ 100
O=C1CCCC(n2c(=O)ccc3cc(Br)ccc32)C(=O)N1 (centres unmarked) [Example 257, 3-(6-Bromo-2-oxoquinolin-1-yl)azepane-2,7-dione]	≥ 100
COc1cccc2c1ccc(=O)n2C1CCCC(=O)NC1=O (centres unmarked) [Example 258, 3-(5-Methoxy-2-oxoquinolin-1-yl)azepane-2,7-dione]	≥ 100
Cn1c(=O)c(=O)n(C2CCCC(=O)NC2=O)c2ccccc21 (centres unmarked) [Example 259, 1-(2,7-Dioxoazepan-3-yl)-4-methylquinoxaline-2,3-dione]	≥ 100
CC(C)(C)OC(=O)CCc1ccc2c(c1)oc(=O)n2C1CCCC(=O)NC1=O (centres unmarked) [Example 260, tert-Butyl 3-[3-(2,7-dioxoazepan-3-yl)-2-oxo-1,3-benzoxazol-6-yl]propanoate]	50 to 100
Cn1c(=O)n(C2CCCC(=O)NC2=O)c(=O)c2ccc(Br)cc21 (centres unmarked) [Example 261, 7-Bromo-3-(2,7-dioxoazepan-3-yl)-1-methylquinazoline-2,4-dione]	50 to 100
CC(C)(C)OC(=O)CCc1ccc2c(c1)sc(=O)n2C1CCCC(=O)NC1=O (centres unmarked) [Example 262, tert-Butyl 3-[3-(2,7-dioxoazepan-3-yl)-2-oxo-1,3-benzothiazol-6-yl]propanoate]	50 to 100
Cn1c(=O)n(C2CCCC(=O)NC2=O)c(=O)c2ccc(CCC(=O)OC(C)(C)C)cc21 (centres unmarked) [Example 265, tert-Butyl 3-[3-(2,7-dioxoazepan-3-yl)-1-methyl-2,4-dioxoquinazolin-7-yl]propanoate]	≥ 100
Cn1c(-c2ccc(CCC(=O)OC(C)(C)C)cc2)nn(C2CCCC(=O)NC2=O)c1=O (centres unmarked) [Example 266, tert-Butyl 3-[4-[1-(2,7-dioxoazepan-3-yl)-4-methyl-5-oxo-1,2,4-triazol-3-yl]phenyl]propanoate]	≥ 100
O=C1CCCC(Oc2ccc(Br)cc2)C(=O)N1 (centres unmarked) [Example 267, 3-(4-Bromophenoxy) azepane-2,7-dione]	≥ 100
CC(C)(C)OC(=O)c1ccc(OC2CCCC(=O)NC2=O)nc1 (centres unmarked) [Example 268, tert-Butyl 6-(2,7-dioxoazepan-3-yl) oxypyridine-3-carboxylate]	≥ 100

SMILES	Kd [µM]
O=C1CCCC2(CCN(C(=O)C3CCN(c4ncccn4)CC3)C2)C(=O)N1 (centres unmarked) [Example 269, 2-(1-Pyrimidin-2-ylpiperidine-4-carbonyl)-2,7-diazaspiro [4.6]undecane-6,8-dione]	≥ 100
CN(C1CCCC(=O)NC1=O)S(=O)(=O)c1ccc(CCCCCCNC(=O)OC(C)(C)C)cc1 (centres unmarked) [Example 271, tert-Butyl N-[6-[4-[(2,7-dioxoazepan-3-yl)-methylsulfamoyl]phenyl]hexyl]carbamate]	≥ 100
CN1CCN(c2cnn(C3CCCC(=O)NC3=O)c(=O)c2)CC1 (centres unmarked) [Example 272, 3-[4-(4-Methylpiperazin-1-yl)-6-oxopyridazin-1-yl]azepane-2,7-dione]	≥ 100
CCOC(=O)c1ccc2nc(N3CC4(CC(=O)N(C5CCCC(=O)NC5=O)C4=O)C3)sc2c1 (centres unmarked) [Example 273-2, Ethyl 2-[6-(2,7-dioxoazepan-3-yl)-5,7-dioxo-2,6-diazaspiro [3.4]octan-2-yl]-1,3-benzothiazole-6-carboxylate]	≥ 100
O=C1CCCC(N2C(=O)OCc3cc([N+](=O)[O-])ccc32)C(=O)N1 (centres unmarked) [Example 274, 3-(6-Nitro-2-oxo-4H-3,1-benzoxazin-1-yl) azepane-2,7-dione]	≥ 100
CC(C)(C)OC(=O)Cn1c(=O)c(=O)n(C2CCCC(=O)NC2=O)c2ccccc21 (centres unmarked) [Example 275, tert-Butyl 2-[4-(2,7-dioxoazepan-3-yl)-2,3-dioxoquinoxalin-1-yl]acetate]	≥ 100
CC(C)(C)OC(=O)N1CCC(c2ccc(OC3CCCC(=O)NC3=O)cc2)CC1 (centres unmarked) [Example 276]	≥ 100
O=C1CCC(N2C(=O)CC3(CN(C4CCN(CC(=O)OCc5ccccc5)CC4)C3)C2=O)C(=O)N1 (centres unmarked) [Example 277, Benzyl 2-[4-[6-(2,6-dioxopiperidin-3-yl)-5,7-dioxo-2,6-diazaspiro [3.4]octan-2-yl]piperidin-1-yl]acetate]	< 50
CC(C)(C)OC(=O)NCCc1ccc(S(=O)(=O)N2CC3(CC(=O)N(C4CCC(=O)NC4=O)C3=O)C2)cc1 (centres unmarked) [Example 278, tert-Butyl N-[2-[4-[[6-(2,6-dioxopiperidin-3-yl)-5,7-dioxo-2,6-diazaspiro [3.4]octan-2-yl]sulfonyl]phenyl]ethyl]carbamate]	≥ 100
Cn1nc(N2CC=CC(=O)NC2=O)c2ccc(Br)cc21 [Example 281, 3-(6-Bromo-1-methylindazol-3-yl)-4H-1,3-diazepine-2,7-dione]	≥ 100
CC1(N2CC=CC(=O)NC2=O)C(=O)N(CC(=O)OCc2ccccc2)c2ccccc21 (centres unmarked) [Example 283, Benzyl 2-[3-(2,7-dioxo-4H-1,3-diazepin-3-yl)-3-methyl-2-oxoindol-1-yl]acetate]	50 to 100
Cn1nc(N2C=CCC(=O)NC2=O)c2ccc(/C=C/C(=O)OC(C)(C)C)cc21 [Example 287, tert-Butyl (E)-3-[3-(2,4-dioxo-5H-1,3-diazepin-1-yl)-1-methylindazol-6-yl]prop-2-enoate]	< 50
CN1C(=O)C(C)(N2C=CCC(=O)NC2=O)c2ccc(/C=C/C(=O)OC(C)(C)C)cc21 (centres unmarked) [Example 288, tert-Butyl (E)-3-[3-(2,4-dioxo-5H-1,3-diazepin-1-yl)-1,3-dimethyl-2-oxoindolin-6-yl]prop-2-enoate]	< 50
CN1C(=O)C(C)(N2C=CCC(=O)NC2=O)c2cccc(/C=C/C(=O)OC(C)(C)C)c21 (centres unmarked) [Example 289, tert-Butyl (E)-3-[3-(2,4-dioxo-5H-1,3-diazepin-1-yl)-1,3-dimethyl-2-oxoindolin-7-yl]prop-2-enoate]	< 50
Cn1nc(N2CCCC(=O)NC2=O)c2ccc(CCC(=O)OC(C)(C)C)cc21 [Example 291, tert-Butyl 3-[3-(2,4-dioxo-1,3-diazepan-1-yl)-1-methylindazol-6-yl]propanoate]	50 to 100
CC1(N2CCCC(=O)NC2=O)C(=O)N(CC(=O)O)c2ccccc21 (centres unmarked) [Example 292, 2-[3-(2,4-dioxo-1,3-diazepan-1-yl)-3-methyl-2-oxoindol-1-yl]acetic acid]	≥ 100
Cc1ccc(NC(=O)Nc2ccc3nc(N4CCC5(CCCC(=O)NC5=O)C4)sc3c2)cc1Cl (centres unmarked) [Example 296, 1-(3-Chloro-4-methylphenyl)-3-[2-(6,8-dioxo-2,7-diazaspiro [4.6]undecan-2-yl)-1,3-benzothiazol-6-yl]urea]	≥ 100
Nc1ccc(N2CCC(N3CCCC(=O)NC3=O)C2=O)cc1 (centres unmarked) [Example 297, 1-[1-(4-Aminophenyl)-2-oxopyrrolidin-3-yl]-1,3-diazepane-2,4-dione]	≥ 100
CC(C)(C)OC(=O)CCCCCNc1ccc(C(=O)N2CCC3(CCCC(=O)NC3=O)C2)cc1 (centres unmarked) [Example 300, tert-Butyl 6-[4-(6,8-dioxo-2,7-diazaspiro[4.6]undecane-2-carbonyl)anilino]hexanoate]	< 50
CC(C)(C)OC(=O)NCCCCCCCNc1ccc2nc(N3CCCC(=O)NC3=O)sc2c1 [Example 303, tert-Butyl N-[7-[[2-(2,4-dioxo-1,3-diazepan-1-yl)-1,3-benzothiazol-6-yl]amino]heptyl]carbamate]	≥ 100
CC(C)(C)[Si](C)(C)OC1c2cccc(Br)c2CC1N1CC=CC(=O)NC1=O (centres unmarked) [Example 307]	≥ 100
Cc1sc2c(c1C)C(c1ccc(Cl)cc1)=N[C@@H](CC(=O)NCCCCCCc1cccc(C(=O)N3CCC4(CCCC(=O)NC4=O)C3)c1)c1nnc(C)n1-2 (stereo partly drawn) [Example 308, 2-[(9S)-7-(4-chlorophenyl)-4,5,13-trimethyl-3-thia-1,8,11,12-tetraazatricyclo[8.3.0.02,6]trideca-2(6),4,7,10,12-pentaen-9-yl]-N-[6-[3-(6,8-dioxo-2,7-diazaspiro[4.6]undecane-2-carbonyl)phenyl]hexyl]acetamide]	≥ 100

Source: patent US20250388593A1 (MITSUBISHI TANABE PHARMA CORPORATION, priority 2023, published 2025)
